Values after ≈ are worked out from the molar mass of the structure shown. Where a SMILES comes first, the peptide text is derived from it. Bridges are numbered along the chain shown (N, C = ends). [ ]: non-standard residue; d: D form. Orn = NCCC[C@H](N)C(=O)O; Mpa = O=C(O)CCS
Tests used:
Oxytocin receptor = biological target: T1, Oxytocin receptor (Homo sapiens, UniProt P30559); assay: Binding affinity to human oxytocin receptor
T1 sequence (P30559 whole entry): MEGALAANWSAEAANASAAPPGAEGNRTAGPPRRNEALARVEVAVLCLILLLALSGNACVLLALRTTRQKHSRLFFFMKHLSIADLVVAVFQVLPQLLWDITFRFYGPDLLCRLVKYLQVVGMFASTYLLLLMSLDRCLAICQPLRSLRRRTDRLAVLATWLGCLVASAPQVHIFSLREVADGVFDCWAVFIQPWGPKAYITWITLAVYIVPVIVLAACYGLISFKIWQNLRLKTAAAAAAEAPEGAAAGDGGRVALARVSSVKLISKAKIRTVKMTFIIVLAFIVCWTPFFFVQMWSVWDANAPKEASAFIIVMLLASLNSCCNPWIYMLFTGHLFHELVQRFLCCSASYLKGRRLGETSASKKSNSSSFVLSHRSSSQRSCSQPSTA

Vasopressin V1a receptor = Vasopressin V1a receptor (Homo sapiens, UniProt P37288); assay: Binding affinity to human vasopressin V1a receptor
Sequence of Vasopressin V1a receptor (P37288 whole entry): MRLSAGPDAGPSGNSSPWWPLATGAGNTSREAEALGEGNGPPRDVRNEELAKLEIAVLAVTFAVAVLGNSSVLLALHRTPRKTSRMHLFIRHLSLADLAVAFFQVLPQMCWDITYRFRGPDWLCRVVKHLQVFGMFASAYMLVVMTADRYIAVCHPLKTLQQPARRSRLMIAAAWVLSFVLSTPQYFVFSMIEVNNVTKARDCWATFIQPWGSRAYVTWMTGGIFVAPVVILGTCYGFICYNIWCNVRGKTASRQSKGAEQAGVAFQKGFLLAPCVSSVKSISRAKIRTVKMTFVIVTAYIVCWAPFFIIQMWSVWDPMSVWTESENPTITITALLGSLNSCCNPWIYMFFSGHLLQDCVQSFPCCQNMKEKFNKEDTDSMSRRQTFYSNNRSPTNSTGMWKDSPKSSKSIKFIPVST

Vasopressin V2 receptor = Vasopressin V2 receptor (Homo sapiens, UniProt P30518); assay: Binding affinity to human vasopressin V2 receptor
Sequence of Vasopressin V2 receptor (P30518 whole entry): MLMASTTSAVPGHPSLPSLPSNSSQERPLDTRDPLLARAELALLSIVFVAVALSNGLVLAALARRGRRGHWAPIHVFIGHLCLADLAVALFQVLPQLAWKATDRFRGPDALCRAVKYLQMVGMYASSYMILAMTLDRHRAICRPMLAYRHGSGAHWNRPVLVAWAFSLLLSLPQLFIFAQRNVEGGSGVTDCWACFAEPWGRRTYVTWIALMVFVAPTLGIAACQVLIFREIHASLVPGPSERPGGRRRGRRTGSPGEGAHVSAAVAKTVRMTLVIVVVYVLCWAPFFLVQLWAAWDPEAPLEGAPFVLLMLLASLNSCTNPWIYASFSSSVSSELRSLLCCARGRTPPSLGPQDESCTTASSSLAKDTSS

Vasopressin V1b receptor = biological target: T2, Vasopressin V1b receptor (Homo sapiens, UniProt P47901); assay: Binding affinity to human vasopressin V1b receptor
T2 sequence (P47901 whole entry): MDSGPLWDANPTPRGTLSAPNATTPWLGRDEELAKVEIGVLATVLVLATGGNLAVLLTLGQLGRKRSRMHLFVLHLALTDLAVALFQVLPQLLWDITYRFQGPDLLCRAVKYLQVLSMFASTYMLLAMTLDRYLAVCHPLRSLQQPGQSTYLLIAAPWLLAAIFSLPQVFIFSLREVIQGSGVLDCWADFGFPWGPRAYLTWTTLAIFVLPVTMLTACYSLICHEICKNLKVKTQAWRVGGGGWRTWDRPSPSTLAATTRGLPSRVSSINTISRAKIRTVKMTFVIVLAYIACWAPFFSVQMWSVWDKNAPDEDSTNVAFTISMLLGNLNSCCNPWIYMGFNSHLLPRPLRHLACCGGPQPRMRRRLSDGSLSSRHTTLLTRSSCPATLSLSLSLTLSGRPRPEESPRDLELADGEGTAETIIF

[1] = biological target: Oxytocin receptor (Rattus norvegicus) (UniProt P70536); assay: Binding affinity to recombinant oxytocin receptor
Sequence of Oxytocin receptor (Rattus norvegicus) (P70536 whole entry, looked up): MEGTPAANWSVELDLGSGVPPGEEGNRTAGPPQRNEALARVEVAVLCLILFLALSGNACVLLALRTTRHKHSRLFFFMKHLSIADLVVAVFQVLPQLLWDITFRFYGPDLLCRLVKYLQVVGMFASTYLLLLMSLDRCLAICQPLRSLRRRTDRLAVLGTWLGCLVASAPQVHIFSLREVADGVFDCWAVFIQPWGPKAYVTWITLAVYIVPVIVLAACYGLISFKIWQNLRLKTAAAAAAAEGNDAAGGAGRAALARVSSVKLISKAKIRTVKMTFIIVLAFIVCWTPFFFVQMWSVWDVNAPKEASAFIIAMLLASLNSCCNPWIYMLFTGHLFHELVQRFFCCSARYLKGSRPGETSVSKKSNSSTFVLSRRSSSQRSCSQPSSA

[2] = Distribution coefficient, log D of the compound; format: physicochemical; settings: chromatographic
Cytochrome P450 3A4 = Cytochrome P450 3A4 (Homo sapiens, UniProt P08684); assay: Inhibition of CYP3A4; format: ADME
Sequence of Cytochrome P450 3A4 (P08684 whole entry): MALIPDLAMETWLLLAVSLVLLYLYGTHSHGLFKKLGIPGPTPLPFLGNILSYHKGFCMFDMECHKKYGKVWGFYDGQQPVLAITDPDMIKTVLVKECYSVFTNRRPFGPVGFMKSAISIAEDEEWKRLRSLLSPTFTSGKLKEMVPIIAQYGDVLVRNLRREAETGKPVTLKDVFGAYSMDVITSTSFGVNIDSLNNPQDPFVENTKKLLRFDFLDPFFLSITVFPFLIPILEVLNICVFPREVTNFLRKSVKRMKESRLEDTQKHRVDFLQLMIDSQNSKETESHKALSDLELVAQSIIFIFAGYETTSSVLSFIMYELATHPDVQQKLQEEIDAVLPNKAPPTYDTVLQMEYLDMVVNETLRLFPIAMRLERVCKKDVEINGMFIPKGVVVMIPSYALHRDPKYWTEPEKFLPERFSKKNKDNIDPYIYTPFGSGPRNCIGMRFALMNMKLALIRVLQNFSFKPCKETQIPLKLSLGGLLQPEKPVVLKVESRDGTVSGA

[3] = Aqueous solubility of the compound; format: physicochemical; settings: buffer
[4] = Binding affinity to human serum albumin; format: ADME, cell-free; settings: read-out: PB (converted)
[5] = Half life in rat at 2 mg/kg, iv or 5 mg/kg, po; format: ADME, organism-based; settings: in vivo
[6] = Clearance in rat at 2 mg/kg, iv or 5 mg/kg, po; format: ADME, organism-based; settings: in vivo
[7] = Bioavailability in rat at 2 mg/kg, iv or 5 mg/kg, po; format: ADME, organism-based; settings: in vivo
[8] = AUC in rat at 5 mg/kg, po in DMSO/PEG400 formulation; format: ADME, organism-based; set-up: dose 5 mg/kg, route oral; settings: plasma
[9] = Selectivity for human oxytocin receptor over vasopressin V1a receptor
[10] = AUC in rat at 5 mg/kg, po in HPMC/Tween formulation; format: ADME, organism-based; set-up: dose 5 mg/kg, route oral; settings: plasma
Rattus norvegicus = assay: Decrease in oxytocin-induced uterine contractions in iv dosed non-pregnant Sprague-Dawley rat; format: functional, organism-based

Compound	Ki (Oxytocin receptor; read-out: Log Ki (converted)) [nM]	IC50 (Cytochrome P450 3A4) [nM]	solubility [3] [µg/mL]	fraction unbound [4]	also measured
CNC(=O)c1ccc([C@H](C(=O)NC(C)C)N2C(=O)[C@@H](C3Cc4ccccc4C3)NC(=O)[C@H]2CC(C)C)o1	39.8	–	–	–	–
Cc1nc([C@H](C(=O)N(C)C)N2C(=O)[C@@H](C3Cc4ccccc4C3)NC(=O)[C@H]2CC(C)C)c(C)o1	3.16	–	–	–	–
CC(C)C[C@@H]1C(=O)N[C@H](C2Cc3ccccc3C2)C(=O)N1[C@@H](C(=O)NC(C)C)c1cc(Br)cs1	1	–	–	–	–
CCOc1ccc(C[C@H]2NC(=O)CCSSC[C@@H](C(=O)N3CCC[C@H]3C(=O)N[C@@H](CCCN)C(=O)NCC(N)=O)NC(=O)[C@H](CC(N)=O)NC(=O)[C@H]([C@@H](C)O)NC(=O)[C@H]([C@@H](C)CC)NC2=O)cc1 [ATOSIBAN] ([Mpa][dY](Et)ITNCP[Orn]G-NH2; disulfide 1-6)	–	–	–	–	Ki (Vasopressin V1a receptor): 0.15 nM; Ki (Vasopressin V2 receptor): 330 nM; Ki (Oxytocin receptor; read-out: Ki): 11 nM; Ki (Vasopressin V1b receptor): 44 nM; Ki [1]: 32 nM
CC(C)C[C@@H]1C(=O)N[C@H](C2Cc3ccccc3C2)C(=O)N1[C@@H](C(=O)NC(C)C)c1ccc(C(F)(F)F)o1	0.1	3000	< 1	0.03	logD [2]: 3.6
CC(C)C[C@@H]1C(=O)N[C@H](C2Cc3ccccc3C2)C(=O)N1[C@@H](C(=O)NC(C)C)c1ccc(F)cc1F	–	4000	< 1	0.07	logD [2]: 3.4
Cc1cc([C@H](C(=O)NC(C)C)N2C(=O)[C@@H](C3Cc4ccccc4C3)NC(=O)[C@H]2CC(C)C)oc1C	1.26	–	–	–	–
CC(C)C[C@@H]1C(=O)N[C@H](C2Cc3ccccc3C2)C(=O)N1[C@@H](C(=O)NC(C)C)c1ccco1	6.31	–	–	–	–
CC(C)C[C@@H]1C(=O)N[C@H](C2Cc3ccccc3C2)C(=O)N1[C@@H](C(=O)NC(C)C)c1ccc(Br)o1	0.794	–	–	–	–
CC(C)C[C@@H]1C(=O)N[C@H](C2Cc3ccccc3C2)C(=O)N1[C@@H](C(=O)NC(C)C)c1cccs1	6.31	–	–	–	–
CC[C@@H](C)[C@@H]1C(=O)N[C@H](C2Cc3ccccc3C2)C(=O)N1[C@@H](C(=O)N1CCOCC1)c1coc(C)n1	–	> 100000	> 220	> 0.2	half-life [5]: 1.3 h; clearance [6]: 14 mL/min/kg; bioavailability [7]: 69%; AUC [8]: 4200 ng·h/mL
Cc1nc([C@H](C(=O)N2CCC2)N2C(=O)[C@@H](C3Cc4ccccc4C3)NC(=O)[C@H]2CC(C)C)co1	1.58	> 100000	> 220	> 0.2	half-life [5]: 1.4 h; clearance [6]: 35 mL/min/kg; bioavailability [7]: 45%; AUC [8]: 1070 ng·h/mL; Selectivity ratio [9]: > 10
CC(C)C[C@@H]1C(=O)N[C@H](C2Cc3ccccc3C2)C(=O)N1[C@@H](C(=O)NC(C)C)c1coc(C(F)(F)F)n1	0.158	–	–	–	–
Cc1nc([C@H](C(=O)NC(C)C)N2C(=O)[C@@H](C3Cc4ccccc4C3)NC(=O)[C@H]2CC(C)C)co1	1.26	> 100000	> 240	0.37	logD [2]: 2.5; AUC [8]: 225 ng·h/mL; Selectivity ratio [9]: > 10
Cc1nc([C@H](C(=O)N2CCOCC2)N2C(=O)[C@@H](C3Cc4ccccc4C3)NC(=O)[C@H]2CC(C)C)co1	2	> 100000	> 220	> 0.2	half-life [5]: 1.1 h; clearance [6]: 23 mL/min/kg; AUC [10]: 1190 ng·h/mL; bioavailability [7]: 33%; AUC [8]: 3630 ng·h/mL; Selectivity ratio [9]: > 10
CC(C)C[C@@H]1C(=O)N[C@H](C2Cc3ccccc3C2)C(=O)N1[C@@H](C(=O)NC(C)C)c1ccc(Br)s1	2	1000	< 1	0.01	logD [2]: 3.7
CC(C)C[C@@H]1C(=O)N[C@H](C2Cc3ccccc3C2)C(=O)N1[C@@H](C(=O)NC(C)C)c1ccc(-c2ccccn2)s1	2.51	–	–	–	–
CC(C)C[C@@H]1C(=O)N[C@H](C2Cc3ccccc3C2)C(=O)N1[C@@H](C(=O)N(C)C)c1coc(C2CC2)n1	0.794	–	–	–	–
Cc1nc([C@H](C(=O)N(C)CCO)N2C(=O)[C@@H](C3Cc4ccccc4C3)NC(=O)[C@H]2CC(C)C)co1	1.26	> 100000	> 220	> 0.2	AUC [8]: 218 ng·h/mL; Selectivity ratio [9]: > 10
CC[C@H](C)[C@@H]1C(=O)N[C@H](C2Cc3ccccc3C2)C(=O)N1[C@@H](C(=O)N1CCOCC1)c1coc(C)n1 [RETOSIBAN]	–	> 100000	> 220	> 0.2	half-life [5]: 1.4 h; Ki (Vasopressin V1a receptor): > 12000 nM; clearance [6]: 19 mL/min/kg; AUC [10]: 1800 ng·h/mL; IC50 (Rattus norvegicus): 180 nM; ED50 (Rattus norvegicus; iv, read-out: ID50 (the source's name)): 0.27 mg/kg; Ki (Vasopressin V2 receptor): 950 nM; bioavailability [7]: 100%; Ki (Vasopressin V1b receptor): > 10000 nM; AUC [8]: 5470 ng·h/mL
Cc1ccc([C@H](C(=O)NC(C)C)N2C(=O)[C@@H](C3Cc4ccccc4C3)NC(=O)[C@H]2CC(C)C)o1	1	7000	34 (≈ 73 µM)	0.04	logD [2]: 3.3
CC(C)C[C@@H]1C(=O)N[C@H](C2Cc3ccccc3C2)C(=O)N1[C@@H](C(=O)NC(C)(C)C)c1ccoc1	12.6	–	–	–	–
Cc1nc([C@H](C(=O)N(C)C)N2C(=O)[C@@H](C3Cc4ccccc4C3)NC(=O)[C@H]2CC(C)C)cs1	0.398	–	–	–	–

From ChEMBL document CHEMBL1142309, “The discovery of GSK221149A: a potent and selective oxytocin antagonist” (Bioorg Med Chem Lett, 2008)
